pIC50: −log10 of the molar value. In brackets after ≈: the same amount, converted by molar mass. Where a SMILES comes first, the peptide text is derived from it. Bridges are numbered along the chain shown (N, C = ends). The star is where a group is joined. X1 = O=C(/C=C/C=C/C=C/C=C/c1ccc(O)c(Br)c1)*
How the values were obtained:
[1] = Antioxidant activity assessed as singlet oxygen quenching activity; assay type: functional
[2] = Cytotoxicity against sea urchin eggs; set-up: species or system Egg; conditions: strongylocentrotus intermedius, read-out: MIC
[3] = system: Candida albicans; test: Antimicrobial activity against Candida albicans; assay type: functional

With CC(/C=C/C=C(C)/C=C/C=C(\C)C(=O)O)=C\C=C\C=C(C)\C=C\C=C(C)\C=C\C=C(/C)C(=O)O[C@@H]1OC[C@@H](O)[C@H](O)[C@H]1OC(=O)CCCCCCCCCCC(C)C as the molecule, how does the pIC50 [1] read?
The pIC50 was 5.29.

Which MCC [2] does the source give for CC[C@@H](C)[C@@H]1NC(=O)[C@H](CC(N)=O)NC(=O)[C@H](CC(N)=O)NC(=O)[C@H](C(C)C)NC(=O)[C@@H](NC(=O)/C=C/C=C/C=C/C=C/c2ccc(O)c(Br)c2)[C@@H](C)OC1=O here?
Its MCC is 40 µg/mL.

With CC[C@@H](C)[C@@H]1NC(=O)[C@H](CC(N)=O)NC(=O)[C@H](CC(N)=O)NC(=O)[C@H](C(C)C)NC(=O)[C@@H](NC(=O)CCCCCCCCc2ccc(O)cc2)[C@@H](C)OC1=O as the molecule, how does the MCC [2] read?
Its MCC is 40 µg/mL.

Which MCC [2] does the source give for CC[C@@H](C)[C@@H]1NC(=O)[C@H](CC(N)=O)NC(=O)[C@H](CC(N)=O)NC(=O)[C@H](C(C)C)NC(=O)[C@@H](NC(=O)CCCCCCCCc2ccc(O)c(Br)c2)[C@@H](C)OC1=O here?
The MCC was 40 µg/mL.

With CC[C@@H](C)[C@@H]1NC(=O)[C@H](CC(N)=O)NC(=O)[C@H](CC(N)=O)NC(=O)[C@H](C(C)C)NC(=O)[C@@H](NC(=O)/C=C/CCCCCCc2ccc(O)c(Br)c2)[C@@H](C)OC1=O as the molecule, how does the MCC [2] read?
The MCC was 40 µg/mL.

Which MCC [2] does the source give for CC(C)C[C@@H]1NC(=O)[C@H](CC(N)=O)NC(=O)[C@H](CC(N)=O)NC(=O)[C@H](C(C)C)NC(=O)[C@@H](NC(=O)/C=C/C=C/C=C/C=C/c2ccc(O)c(Br)c2)[C@@H](C)OC1=O (X1-TVNNL; ester 1-C) here?
Its MCC is 40 µg/mL.

For C/C1=C\[C@H](C)C[C@H](C)OC(=O)C[C@H](c2ccc(O)cc2)NC(=O)[C@@H](Cc2c(Br)[nH]c3ccccc23)N(C)C(=O)[C@H](C)NC(=O)[C@@H](C)C1 [JASPAMIDE], which MIC [3] is on record?
The MIC was 25 µg/mL (≈ 35.2 µM).

Reference: ChEMBL document CHEMBL3124802, “Scrutinizing the scaffolds of marine biosynthetics from different source organisms: Gram-negative cultured bacterial products enter center stage” (J Nat Prod, 2014)
